# Measured values taken from article PMC10732398 (PLOS Pathogens, 2023).
# System: ⍺4β7
# Assay: SPR: inhibition by linear peptides of soluble ⍺4β7 binding to a CD4 D1D2 coated surface
# Settings: SPR peptide scan (Fig 4A); ⍺4β7 pre-incubated with peptide 2 hours at room temperature; 1 mM MnCl2
# Text: We next modified our SPR -based assay in order to map the site(s) on CD4 that interacts with ⍺4β7. In this modified assay ⍺4β7 was passed over a surface coated with CD4 D1D2 in the absence or presence of 42 overlapping 15 amino acid linear peptides spanning CD4 residues 1–178 (S2 Table). Two peptides located in CD4 D1, #7 and #9, inhibited ⍺4β7 binding by ~17% (Fig 4A). The final peptide in CD4 D2, p42, inhibited binding by ~ 66%. Linear peptides often lack the true conformation of the protein from which they are derived. Additionally, the kinetic format of our assay allows for ligand-analyte rebinding during the association phase. These features render this inhibition assay somewhat insensitive. Nevertheless, the dynamic range of this assay is sufficient to identify interactions that are worthy of follow-up investigation (S4 Fig). As such, our preliminary findings raised the possibility that both D1 and D2 domains of CD4 interact with ⍺4β7. Of note, MAdCAM-1 and VCAM-1, like CD4, present two tandemly arrayed N-terminal IgSF domains (Fig 4B). In both cases, binding to ⍺4β7 is mediated by a 1° binding site in their D1s and an accessory site, located in their D2s. The term accessory is a misnomer insofar as these sites plays an essential role in ⍺4β7 binding. Follow-up experiments focused on p9 and p42, which we herein refer to as pCD4^33-47 and pCD4^165-178. pCD4^33-47 partially overlaps the D1 C’C” β-strands and a connecting loop. The primary gp120 contact site (Phe^43) lies at the N-terminal edge of this loop (Fig 4C). pCD4^165-178 includes Q^165 and K^166. These residues lie primarily within the G β-strand of D2, close to the boundary with D3. Because peptide inhibition assays sometime mediate nonspecific effects, further analysis was performed to better establish the role of these two regions of CD4 in binding to ⍺4β7.
# To determine if this is the case, we employed an SPR -based assay. Biosensor surfaces were coated with either CD4 D1D2 or a 42 aa cyclic V2 peptide derived from the subtype E 92TH023 gp120 (cV2 92TH023). A third surface coated with MAdCAM-Ig was employed as a positive control. Soluble ⍺4β7 was passed over these surfaces. We then evaluated the capacity of staggered 15 aa peptides that span either CD4 D2 or gp120 V2 to inhibit this interaction (Fig 7A).
# Experiments were performed using a Biacore 3000 instrument (Cytiva Life Sciences) using CM4 or CM5 sensor chips. The data were evaluated using BIAevaluation 4.1.1 software (Cytiva Life Sciences). The chip surface was activated by injecting 35 μl of a 1:1 mixture of 0.05 M N-hydroxysuccinimide and 0.2 M N-ethyl-N-(dimethylaminopropyl) carbodiimide at 5 μl/min. NeutrAvidin, HIV gp120, sCD4 (D1D2) or Hu-MAdCAM-Ig (R&D Systems) at concentrations of 5 μg/ml in 10mM NaOAc, pH 4.5, were immobilized to 250–750 resonance units (RU). After the proteins were immobilized to the desired densities, unreacted sites were blocked with 35 μl of 1 M Tris-HCl (pH 8.0). Biotinylated cyclic V2 peptides (1 μg/ml in 20 mM Tris-HCl, pH 8.0) were bound to the NeutrAvidin surfaces to densities of approximately 250–300 RU. One surface was activated and blocked without ligand as a control surface for non-specific binding. Signal from the control surface was subsequently subtracted. Running buffer was HBS (pH 7.4), 1 mM MnCl2, 0.005% Tween- 20, 0.05% soluble carboxymethyl-dextran. Binding experiments were carried out at a flow rate of 25 μl/min at 25°C. After a 2 min injection, the surface was washed for an additional 2 min in running buffer allowing dissociation of the bound ligand from the surface. The surfaces were regenerated by multiple injections of 4.5 M MgCl2 at a flow rate of 100 μl/min. Inhibition of ⍺4β7 binding by linear V2-loop and CD4 derived peptides was carried out by pre-incubating ⍺4β7 with the peptides in running buffer at the indicated concentrations for 2 hours at room temperature prior to passing them over the prepared surfaces as described above. […]
sequence,measurement,value
"QKKVEFKIDIVVLA [CD4 P42, linear CD4 D2 peptide, residues 165-178, G β-strand]",inhibition of ⍺4β7 binding to CD4 D1D2 coated surface,~ 66%
